Values of other authors, collected in publication PMC8513424 (Laryngoscope Investigative Otolaryngology, 2021).

How the values were obtained:
[1] = system: isogenic VS‐ and meningioma‐related cell lines with or without NF2 expression; conditions: among 19 small molecules; cited from earlier work
meningiomas = conditions: cited from earlier work

Cc1[nH]c2ccccc2c1CCNCc1ccc(/C=C/C(=O)NO)cc1 [panobinostat]
Activity across schwannoma and meningioma cell models [1]: greatest activity

COc1ccc(-c2nc(N3CCOCC3)c3sc(CN(C)c4ncc(C(=O)NO)cn4)cc3n2)cn1 [CUDC‐907]
Activity across schwannoma and meningioma cell models [1]: greatest activity

bevacizumab
Response of meningiomas (meningiomas): do not respond
